Experiment [1] has as its target T1, Gonadotropin-releasing hormone receptor (Homo sapiens, UniProt P30968).
T1 sequence (P30968 whole entry): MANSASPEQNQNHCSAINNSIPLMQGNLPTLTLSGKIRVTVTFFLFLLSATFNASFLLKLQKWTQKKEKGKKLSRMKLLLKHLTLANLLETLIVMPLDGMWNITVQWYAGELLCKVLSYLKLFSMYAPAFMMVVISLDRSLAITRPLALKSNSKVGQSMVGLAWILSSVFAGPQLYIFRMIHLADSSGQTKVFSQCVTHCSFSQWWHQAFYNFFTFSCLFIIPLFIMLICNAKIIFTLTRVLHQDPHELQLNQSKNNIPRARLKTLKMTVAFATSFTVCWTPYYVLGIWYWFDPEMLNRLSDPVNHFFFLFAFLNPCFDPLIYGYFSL
Put plainly: Inhibition of GnRH-stimulated phosphatidyl inositol hydrolysis in CHO cells expressing GnRH receptor. Type of experiment: functional, cell-based.

Experiment [2] concerns the target T1, Gonadotropin-releasing hormone receptor. Put plainly: Binding affinity towards human gonadotropin releasing hormone receptor expressed in CHO cells was determined by using [125I]-buserelin as radioligand. Type of experiment: cell-based.

Molecules are shown by their SMILES. pIC50: −log10 of the molar value.

Experimental findings from ChEMBL document CHEMBL1138029, “Identification of neutral 4-O-alkyl quinolone nonpeptide GnRH receptor antagonists” (Bioorg Med Chem Lett, 2004) are described below.

In the case of `Cc1cc(-c2c(OCC[C@@H]3CCN3)c3cc(C(=O)Nc4ccncn4)c(Cl)cc3[nH]c2=O)cc(C)c1C`, the pIC50 in experiment [1] is 9.05.
Turning to `Cc1cc(-c2c(OCCC3CCCO3)c3cc(C(=O)Nc4ccncn4)c(Cl)cc3[nH]c2=O)cc(C)c1C` (stereo not given), the pIC50 in experiment [2] is 9.22; in experiment [1], 8.48.
Turning to `Cc1cc(-c2c(O)nc3cc(Cl)c(C(=O)Nc4cnsn4)cc3c2OCCC2CCCC2)cc(C)c1C`, the pIC50 in experiment [2] is 6.61; in experiment [1] it was 5.94.
The like results for `Cc1cc(-c2c(O)nc3cc(Cl)c(C(=O)Nc4cnsn4)cc3c2OCC[C@H]2CCC(=O)N2C)cc(C)c1C` were, in that order, 8.85 and 7.96.
The like results for `Cc1cc(-c2c(O)nc3cc(Cl)c(C(=O)Nc4cnsn4)cc3c2OCCC2OCCO2)cc(C)c1C` were, in that order, 9.22 and 7.17.
Taken in the same sequence, the figures for `Cc1cc(-c2c(OCCC3CC4CCN3CC4)c3cc(C(=O)Nc4cnsn4)c(Cl)cc3[nH]c2=O)cc(C)c1C` (stereo not given) were 9.22 and 8.24.
Turning to `Cc1cc(-c2c(O)nc3cc(Cl)c(C(=O)Nc4ccncn4)cc3c2OCC[C@@H]2CCC[C@H](C(F)(F)F)N2)cc(C)c1C`, the pIC50 is 8.70 in experiment [2] and 7.74 in experiment [1].
The like results for `Cc1cc(-c2c(OCC[C@@H]3CCN3)c3cc(C(=O)Nc4cnsn4)c(Cl)cc3[nH]c2=O)cc(C)c1C` were, in that order, 9.49 and 9.10.
The like results for `Cc1cc(-c2c(O)nc3cc(Cl)c(C(=O)Nc4ccncn4)cc3c2OCC[C@@H]2CCCN2)cc(C)c1C` were, in that order, 9.10 and 8.66.
The like results for `Cc1cc(-c2c(O)nc3cc(Cl)c(C(=O)Nc4cnsn4)cc3c2OCC[C@H]2CCO2)cc(C)c1C` were, in that order, 9.05 and 7.31.
Take `Cc1cc(-c2c(O)nc3cc(Cl)c(C(=O)Nc4cnsn4)cc3c2OCC[C@H]2CCC(=O)N2)cc(C)c1C`: the pIC50 is 9.52 in experiment [2] and 9.15 in experiment [1].
Regarding `Cc1cc(-c2c(O)nc3cc(Cl)c(C(=O)Nc4ccncn4)cc3c2OCC[C@@H]2CCC[C@H](C(F)(F)F)N2C)cc(C)c1C`, the values for the pIC50 in experiment [2] and in experiment [1] were 8.70 and 7.74, respectively.
Turning to `Cc1cc(-c2c(OCCC3COCCN3)c3cc(C(=O)Nc4cnsn4)c(Cl)cc3[nH]c2=O)cc(C)c1C` (stereo not given), the pIC50 is 9.15 in experiment [2] and 7.49 in experiment [1].
`Cc1cc(-c2c(OCC[C@@H]3CCCCN3)c3cc(C(=O)Nc4cnsn4)c(Cl)cc3[nH]c2=O)cc(C)c1C`: the pIC50 was 9.26 in experiment [2] and 8.80 in experiment [1].
The like results for `Cc1cc(-c2c(OCC[C@H]3CC(=O)N3)c3cc(C(=O)Nc4cnsn4)c(Cl)cc3[nH]c2=O)cc(C)c1C` were, in that order, 10.00 and 8.89.
For the compound `Cc1cc(-c2c(OCC[C@@H]3CCCCN3)c3cc(C(=O)Nc4ccncn4)c(Cl)cc3[nH]c2=O)cc(C)c1C`, the pIC50 in experiment [1] was 8.66.

Usually pIC50 stands for the negative decadic logarithm of the IC50, by convention in mol/L. Read a high pIC50 as a low IC50.
